This note sets out measurements from ChEMBL document CHEMBL5465560, “Selectivity Literature for EUbOPEN Chemogenomic Library” (2024).

Test [1] concerns the target T1, Tyrosine-protein kinase ZAP-70 (Homo sapiens, UniProt P43403).
T1 sequence (P43403 whole entry): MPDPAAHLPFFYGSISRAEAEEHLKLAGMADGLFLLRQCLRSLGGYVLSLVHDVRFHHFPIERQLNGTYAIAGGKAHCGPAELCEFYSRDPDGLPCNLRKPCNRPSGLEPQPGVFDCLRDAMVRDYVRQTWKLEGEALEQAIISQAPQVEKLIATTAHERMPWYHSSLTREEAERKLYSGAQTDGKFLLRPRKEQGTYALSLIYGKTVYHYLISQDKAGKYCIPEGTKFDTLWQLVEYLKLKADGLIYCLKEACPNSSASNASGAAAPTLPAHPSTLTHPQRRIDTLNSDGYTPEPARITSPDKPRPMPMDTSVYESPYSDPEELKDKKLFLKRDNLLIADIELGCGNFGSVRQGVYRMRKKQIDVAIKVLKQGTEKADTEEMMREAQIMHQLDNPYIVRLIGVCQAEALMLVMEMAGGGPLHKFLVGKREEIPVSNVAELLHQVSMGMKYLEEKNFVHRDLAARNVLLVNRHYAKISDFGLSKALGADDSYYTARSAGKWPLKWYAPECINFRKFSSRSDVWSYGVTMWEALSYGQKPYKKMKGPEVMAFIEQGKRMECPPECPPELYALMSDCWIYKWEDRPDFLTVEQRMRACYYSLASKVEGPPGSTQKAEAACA
In words: Selectivity interaction (Kinase panel (enzymatic assay)) EUB0000595a ZAP70.

The target in test [2] is T2, Ephrin type-A receptor 3 (Homo sapiens) (UniProt P29320).
T2 sequence (whole entry): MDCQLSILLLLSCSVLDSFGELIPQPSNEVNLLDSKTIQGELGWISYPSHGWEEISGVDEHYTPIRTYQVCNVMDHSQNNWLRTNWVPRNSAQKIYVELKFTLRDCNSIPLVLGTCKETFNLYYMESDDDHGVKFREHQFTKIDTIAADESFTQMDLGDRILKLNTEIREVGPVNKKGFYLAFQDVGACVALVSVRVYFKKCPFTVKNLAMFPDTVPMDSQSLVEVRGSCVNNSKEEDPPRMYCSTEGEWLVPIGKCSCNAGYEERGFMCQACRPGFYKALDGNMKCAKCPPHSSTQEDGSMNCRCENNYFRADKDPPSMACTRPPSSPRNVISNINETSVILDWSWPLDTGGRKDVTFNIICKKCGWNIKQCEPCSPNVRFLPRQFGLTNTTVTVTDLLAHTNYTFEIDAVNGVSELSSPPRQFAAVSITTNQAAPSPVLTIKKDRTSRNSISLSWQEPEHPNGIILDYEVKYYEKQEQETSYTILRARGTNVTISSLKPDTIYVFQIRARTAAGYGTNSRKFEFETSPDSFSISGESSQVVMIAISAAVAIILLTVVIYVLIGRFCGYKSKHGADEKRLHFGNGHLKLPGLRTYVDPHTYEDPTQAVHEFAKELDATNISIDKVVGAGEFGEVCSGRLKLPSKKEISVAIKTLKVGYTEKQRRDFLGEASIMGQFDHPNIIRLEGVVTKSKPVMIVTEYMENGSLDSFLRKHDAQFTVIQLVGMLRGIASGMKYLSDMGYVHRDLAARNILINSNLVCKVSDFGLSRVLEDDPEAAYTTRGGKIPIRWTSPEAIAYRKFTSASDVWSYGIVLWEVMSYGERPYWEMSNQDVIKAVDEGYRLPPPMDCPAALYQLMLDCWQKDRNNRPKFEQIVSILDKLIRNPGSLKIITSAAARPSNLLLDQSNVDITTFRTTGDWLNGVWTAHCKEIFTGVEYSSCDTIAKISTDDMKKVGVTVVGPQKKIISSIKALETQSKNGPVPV
Description: Selectivity interaction (KinomeScan (DiscoverX)) EUB0001619a EPHA3. To be noted: at 1 µM.

Test [3] addresses Mitogen-activated protein kinase 11 (Homo sapiens) (UniProt Q15759). In words: Selectivity interaction (KinomeScan (DiscoverX)) EUB0000695a MAPK11. To be noted: at 100 nM.
Test [4] addresses SRSF protein kinase 3 (Homo sapiens) (UniProt Q9UPE1). In words: Selectivity interaction (KinomeScan (DiscoverX)) EUB0000607a SRPK3. To be noted: at 10 µM.
The target of test [5] is T3, Aurora kinase C (Homo sapiens) (UniProt Q9UQB9).
T3 sequence (whole entry): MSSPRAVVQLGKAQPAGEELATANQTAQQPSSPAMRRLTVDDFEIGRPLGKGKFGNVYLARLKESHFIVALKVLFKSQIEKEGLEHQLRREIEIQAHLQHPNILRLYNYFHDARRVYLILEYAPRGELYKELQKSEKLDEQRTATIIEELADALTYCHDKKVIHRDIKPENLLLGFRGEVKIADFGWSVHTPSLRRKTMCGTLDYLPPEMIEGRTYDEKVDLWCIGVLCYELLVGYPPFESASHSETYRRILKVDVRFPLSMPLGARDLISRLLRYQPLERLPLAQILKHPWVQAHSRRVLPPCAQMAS
The note with it: at 10 µM.

In test [6] the target is T4, Dual specificity mitogen-activated protein kinase kinase 3 (Homo sapiens) (UniProt P46734).
T4 sequence (whole entry): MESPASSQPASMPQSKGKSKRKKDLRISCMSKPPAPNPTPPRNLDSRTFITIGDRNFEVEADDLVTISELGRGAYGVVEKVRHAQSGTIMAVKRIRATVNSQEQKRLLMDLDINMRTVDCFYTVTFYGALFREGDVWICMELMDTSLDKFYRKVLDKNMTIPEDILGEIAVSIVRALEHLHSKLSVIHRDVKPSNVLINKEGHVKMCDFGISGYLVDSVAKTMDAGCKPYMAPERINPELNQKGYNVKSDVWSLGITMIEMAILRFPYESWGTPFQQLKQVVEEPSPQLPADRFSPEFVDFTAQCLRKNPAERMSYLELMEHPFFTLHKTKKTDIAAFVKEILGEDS
In words: Selectivity interaction (Kinase panel (Invitrogen)) EUB0000639a MAP2K3. The note with it: at 200 nM.

The target in test [7] is Fibroblast growth factor receptor 4 (Homo sapiens, UniProt P22455). Description: Selectivity interaction (Kinase panel (Invitrogen)) EUB0000639a FGFR4. The note with it: at 200 nM.
Chain of Fibroblast growth factor receptor 4 (P22455 22-802 limits assumed): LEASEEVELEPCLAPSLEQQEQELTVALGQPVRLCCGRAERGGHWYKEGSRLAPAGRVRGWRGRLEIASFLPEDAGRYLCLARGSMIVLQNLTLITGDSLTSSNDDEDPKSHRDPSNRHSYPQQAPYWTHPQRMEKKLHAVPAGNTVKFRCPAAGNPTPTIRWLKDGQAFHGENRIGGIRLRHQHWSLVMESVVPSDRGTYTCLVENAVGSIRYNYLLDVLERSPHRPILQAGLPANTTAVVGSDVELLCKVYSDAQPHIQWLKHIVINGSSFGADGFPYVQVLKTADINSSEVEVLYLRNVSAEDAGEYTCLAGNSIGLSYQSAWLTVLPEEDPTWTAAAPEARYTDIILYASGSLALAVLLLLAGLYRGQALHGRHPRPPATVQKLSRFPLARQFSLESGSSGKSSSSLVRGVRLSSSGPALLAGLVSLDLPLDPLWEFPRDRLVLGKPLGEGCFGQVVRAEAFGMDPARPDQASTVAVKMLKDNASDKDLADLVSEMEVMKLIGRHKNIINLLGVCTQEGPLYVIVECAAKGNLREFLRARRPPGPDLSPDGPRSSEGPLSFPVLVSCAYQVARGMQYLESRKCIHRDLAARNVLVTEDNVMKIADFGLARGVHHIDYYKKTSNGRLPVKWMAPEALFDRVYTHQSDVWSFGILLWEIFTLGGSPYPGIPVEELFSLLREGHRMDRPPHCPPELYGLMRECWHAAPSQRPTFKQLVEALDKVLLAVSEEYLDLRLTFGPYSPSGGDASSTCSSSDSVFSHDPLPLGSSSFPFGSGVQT
For test [8], the system named is Epidermal growth factor receptor (Homo sapiens), P00533 [UNDEFINED MUTATION]. Description: Selectivity interaction (KinomeScan (DiscoverX)) EUB0000045b EGFR. To be noted: at 1 µM.
Chain of Epidermal growth factor receptor (Homo sapiens), P00533 [UNDEFINED MUTATION] (P00533 whole entry, looked up, change not shown): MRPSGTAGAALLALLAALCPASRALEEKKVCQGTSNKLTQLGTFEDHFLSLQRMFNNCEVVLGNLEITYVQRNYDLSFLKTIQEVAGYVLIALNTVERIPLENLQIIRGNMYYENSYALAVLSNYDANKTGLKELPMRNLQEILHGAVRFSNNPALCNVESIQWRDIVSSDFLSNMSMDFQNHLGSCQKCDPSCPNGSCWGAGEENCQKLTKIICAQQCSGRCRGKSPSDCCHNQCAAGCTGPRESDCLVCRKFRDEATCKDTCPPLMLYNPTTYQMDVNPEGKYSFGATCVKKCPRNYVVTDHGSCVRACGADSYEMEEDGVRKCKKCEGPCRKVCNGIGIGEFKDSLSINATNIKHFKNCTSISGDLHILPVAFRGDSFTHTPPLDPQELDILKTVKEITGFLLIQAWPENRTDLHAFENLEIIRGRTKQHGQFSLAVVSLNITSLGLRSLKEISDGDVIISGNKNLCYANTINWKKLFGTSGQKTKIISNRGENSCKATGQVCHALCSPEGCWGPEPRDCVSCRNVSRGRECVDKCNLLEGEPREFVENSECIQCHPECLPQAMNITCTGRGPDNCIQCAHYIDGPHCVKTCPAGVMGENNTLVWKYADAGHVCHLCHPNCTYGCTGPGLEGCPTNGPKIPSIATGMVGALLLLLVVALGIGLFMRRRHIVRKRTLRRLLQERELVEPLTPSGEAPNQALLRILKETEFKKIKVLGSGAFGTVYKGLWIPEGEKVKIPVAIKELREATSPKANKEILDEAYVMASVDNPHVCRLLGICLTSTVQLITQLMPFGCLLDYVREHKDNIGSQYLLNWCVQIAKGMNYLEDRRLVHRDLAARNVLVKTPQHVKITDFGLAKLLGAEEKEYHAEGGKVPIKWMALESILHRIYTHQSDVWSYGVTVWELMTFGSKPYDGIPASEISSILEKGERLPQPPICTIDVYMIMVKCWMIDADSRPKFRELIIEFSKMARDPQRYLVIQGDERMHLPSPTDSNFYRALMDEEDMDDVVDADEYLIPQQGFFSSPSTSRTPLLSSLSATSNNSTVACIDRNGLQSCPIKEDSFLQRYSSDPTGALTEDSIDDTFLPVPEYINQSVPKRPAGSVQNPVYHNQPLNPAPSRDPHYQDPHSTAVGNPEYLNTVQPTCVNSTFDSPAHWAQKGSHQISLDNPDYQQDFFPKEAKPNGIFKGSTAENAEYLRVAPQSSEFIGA
Test [9] concerns the target Serine/threonine-protein kinase Nek7 (Homo sapiens) (UniProt Q8TDX7). In words: Selectivity interaction (Ambit KINOMEscan and KiNATiv profiling in Jurkat cells) EUB0000090b NEK7. Format: cell-based. To be noted: at 1 µM.
In test [10] the target is Fibroblast growth factor receptor 1 (Homo sapiens, UniProt P11362).
Chain of Fibroblast growth factor receptor 1 (P11362 whole entry): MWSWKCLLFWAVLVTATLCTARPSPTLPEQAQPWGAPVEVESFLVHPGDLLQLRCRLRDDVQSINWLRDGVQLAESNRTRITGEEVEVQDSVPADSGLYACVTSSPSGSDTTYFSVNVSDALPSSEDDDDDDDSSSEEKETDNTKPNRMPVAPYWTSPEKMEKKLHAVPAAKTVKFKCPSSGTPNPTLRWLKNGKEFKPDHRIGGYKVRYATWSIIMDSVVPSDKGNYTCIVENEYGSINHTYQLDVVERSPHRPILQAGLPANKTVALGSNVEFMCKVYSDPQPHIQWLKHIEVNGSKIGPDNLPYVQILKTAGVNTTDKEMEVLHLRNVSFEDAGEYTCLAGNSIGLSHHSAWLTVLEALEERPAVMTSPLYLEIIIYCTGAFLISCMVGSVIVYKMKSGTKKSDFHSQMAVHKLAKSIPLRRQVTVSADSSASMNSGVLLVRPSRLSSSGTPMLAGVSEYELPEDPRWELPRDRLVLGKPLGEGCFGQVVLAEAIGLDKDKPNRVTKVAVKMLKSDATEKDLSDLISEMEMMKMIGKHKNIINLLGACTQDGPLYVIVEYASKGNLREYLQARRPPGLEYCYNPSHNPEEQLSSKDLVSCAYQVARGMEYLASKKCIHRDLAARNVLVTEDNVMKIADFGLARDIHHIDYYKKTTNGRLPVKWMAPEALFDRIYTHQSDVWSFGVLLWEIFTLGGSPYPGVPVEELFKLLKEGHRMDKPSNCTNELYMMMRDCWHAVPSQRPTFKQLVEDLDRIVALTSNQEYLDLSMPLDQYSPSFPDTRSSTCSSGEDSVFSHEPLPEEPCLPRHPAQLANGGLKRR
Test [11] addresses Tyrosine-protein kinase SYK (Homo sapiens, UniProt P43405). In words: Selectivity interaction (Kinase panel (33PanQinase(R) Activity Assay)) EUB0000877a SYK.
Test [12] concerns the target Lethal(3)malignant brain tumor-like protein 1 (Homo sapiens) (UniProt Q9Y468). Description: Selectivity interaction (PWWP, WD40, and Tudor domain panel (DSLS measurements, literature)) EUB0000270b L3MBTL.

Molecules are shown by their SMILES.

Chain of Mitogen-activated protein kinase 11 (Homo sapiens) (Q15759 whole entry): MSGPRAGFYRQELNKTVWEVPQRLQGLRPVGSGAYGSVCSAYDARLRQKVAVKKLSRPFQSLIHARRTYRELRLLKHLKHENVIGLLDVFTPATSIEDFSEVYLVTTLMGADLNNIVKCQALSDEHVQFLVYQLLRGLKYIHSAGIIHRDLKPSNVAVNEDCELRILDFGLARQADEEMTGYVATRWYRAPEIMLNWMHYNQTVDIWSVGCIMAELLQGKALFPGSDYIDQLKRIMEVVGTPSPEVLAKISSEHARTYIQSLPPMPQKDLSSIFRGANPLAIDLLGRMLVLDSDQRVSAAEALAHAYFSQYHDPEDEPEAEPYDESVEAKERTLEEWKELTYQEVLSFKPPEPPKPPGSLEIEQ
Chain of Serine/threonine-protein kinase Nek7 (Homo sapiens) (Q8TDX7 whole entry, looked up): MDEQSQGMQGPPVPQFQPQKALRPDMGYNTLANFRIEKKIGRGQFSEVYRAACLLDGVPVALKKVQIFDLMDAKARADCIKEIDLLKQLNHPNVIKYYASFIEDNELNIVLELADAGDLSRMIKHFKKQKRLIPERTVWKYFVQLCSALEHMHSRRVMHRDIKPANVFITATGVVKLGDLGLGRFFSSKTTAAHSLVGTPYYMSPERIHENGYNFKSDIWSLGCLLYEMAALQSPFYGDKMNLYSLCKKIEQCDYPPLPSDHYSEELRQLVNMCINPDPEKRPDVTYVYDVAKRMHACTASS
Chain of Lethal(3)malignant brain tumor-like protein 1 (Homo sapiens) (Q9Y468 whole entry, the tested form may be a part): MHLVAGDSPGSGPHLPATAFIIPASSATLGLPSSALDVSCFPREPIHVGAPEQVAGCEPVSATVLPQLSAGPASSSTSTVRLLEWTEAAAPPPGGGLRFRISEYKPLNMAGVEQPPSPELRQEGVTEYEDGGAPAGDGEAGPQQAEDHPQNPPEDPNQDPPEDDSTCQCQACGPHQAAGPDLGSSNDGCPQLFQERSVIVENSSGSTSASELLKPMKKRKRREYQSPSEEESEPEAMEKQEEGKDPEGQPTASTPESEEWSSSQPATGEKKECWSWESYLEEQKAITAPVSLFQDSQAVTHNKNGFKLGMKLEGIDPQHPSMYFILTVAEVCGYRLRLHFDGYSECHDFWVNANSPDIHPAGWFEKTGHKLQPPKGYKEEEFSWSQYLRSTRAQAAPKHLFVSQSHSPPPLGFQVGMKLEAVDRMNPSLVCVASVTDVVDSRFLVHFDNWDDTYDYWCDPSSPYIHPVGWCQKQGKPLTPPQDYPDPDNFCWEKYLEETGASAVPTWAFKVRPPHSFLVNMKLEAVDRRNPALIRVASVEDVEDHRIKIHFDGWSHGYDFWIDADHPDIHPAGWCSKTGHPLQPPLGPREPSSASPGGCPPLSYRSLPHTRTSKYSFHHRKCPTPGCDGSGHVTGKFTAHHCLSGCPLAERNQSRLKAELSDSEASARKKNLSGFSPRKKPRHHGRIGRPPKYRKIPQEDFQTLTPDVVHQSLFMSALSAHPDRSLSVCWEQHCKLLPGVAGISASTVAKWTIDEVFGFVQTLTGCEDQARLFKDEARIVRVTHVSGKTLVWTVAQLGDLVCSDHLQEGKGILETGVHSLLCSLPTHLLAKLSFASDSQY
Chain of SRSF protein kinase 3 (Homo sapiens) (Q9UPE1 whole entry): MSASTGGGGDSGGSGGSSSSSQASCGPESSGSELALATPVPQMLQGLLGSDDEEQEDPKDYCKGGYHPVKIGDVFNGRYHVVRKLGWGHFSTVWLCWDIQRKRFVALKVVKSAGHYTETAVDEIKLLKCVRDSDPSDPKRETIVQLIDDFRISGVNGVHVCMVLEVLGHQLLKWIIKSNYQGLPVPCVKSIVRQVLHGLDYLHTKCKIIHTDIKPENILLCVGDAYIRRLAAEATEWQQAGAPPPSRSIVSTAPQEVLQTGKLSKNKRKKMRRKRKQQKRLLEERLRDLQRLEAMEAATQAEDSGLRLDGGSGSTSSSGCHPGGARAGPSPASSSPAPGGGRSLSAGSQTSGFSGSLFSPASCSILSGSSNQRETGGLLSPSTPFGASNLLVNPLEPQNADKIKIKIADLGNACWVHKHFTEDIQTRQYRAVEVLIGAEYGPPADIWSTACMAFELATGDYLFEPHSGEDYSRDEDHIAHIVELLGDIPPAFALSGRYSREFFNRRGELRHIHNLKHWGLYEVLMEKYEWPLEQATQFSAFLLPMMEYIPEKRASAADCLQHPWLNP

The IC50 is the concentration that gives 50% inhibition. Lower therefore signals greater potency in that assay. Regarding `COCC(=O)NC/C=C/c1ccc2ncnc(Nc3ccc(Oc4ccc(C)nc4)c(C)c3)c2c1` [CP-724714], the concentration for half-maximal inhibition (IC50) in [1] was above 10 µM.

`N#Cc1cccc(-c2c[nH]c3ncnc(N4CCOCC4)c23)c1`: the % of control in test [2] worked out at 66%.

Turning to `Cc1cc(F)c(C(=O)Nc2cccc(-c3nncn3C(C)C)n2)cc1-n1cnc(C2CC2)c1`, in test [3], the % of control amounted to 100%.

`CNC(=O)Nc1ccc(-c2nc(N3CC4CCC(C3)O4)c3cnn(C4CCC5(CC4)OCCO5)c3n2)cc1` returned a % of control in [4] of 100%.

Compound `Cc1cc([C@@H](C)Nc2ccccc2C(=O)O)c2nc(N3CCOCC3)cc(=O)n2c1` [AZD-6482] yielded a % of control in test [5] of 93%.

As to `CC[C@@H]1[C@H](F)C(=O)N[C@@H]1COc1nccc2cc(C(N)=O)c(OC)cc12` [ZIMLOVISERTIB], the % of inhibition stood at 0.853% in [6] and 3.68% in test [7].

`C=CC(=O)Nc1cc(-n2c(=O)ccc3cnc4ccc(-c5ccc(NS(C)(=O)=O)cc5)cc4c32)ccc1C` came in with a % of control in test [8] of 100%.

`CN(C)C/C=C/C(=O)Nc1ccc(C(=O)N2CCCC(Nc3ncc(Cl)c(-c4c[nH]c5ccccc45)n3)C2)cc1` (configuration not stated) yielded a % of control in test [9] of 91%.

Regarding `CCc1cccc(CC)c1NC(=O)c1nn(C)c2c1CCc1cnc(Nc3ccc(C(=O)NC4CCN(C)CC4)cc3OC(F)(F)F)nc1-2`, the IC50 in [10] is above 10 µM.

As to `CCC(=O)N1CC[C@H](Nc2ncnc3c2CN(c2cnc(OC)c(C(F)(F)F)c2)CC3)C1` [LENIOLISIB], the 50% inhibitory concentration (IC50) in test [11] was above 10 µM.

Compound `Cc1cc(CN)cc(C)c1-c1ncn(C)c1-c1cncn1C` yielded a dTagg in test [12] of 0.2 K.
